These are literature values, as cited in patent US6316473A, “Two surfactant-containing medicinal composition” (Fujisawa Pharmaceutical Co., Ltd., priority 1997, dated 2001).

For this data set the following is noted: stated as well known.

On to `C=CC[C@@H]1/C=C(\C)C[C@H](C)C[C@H](OC)[C@H]2O[C@@](O)(C(=O)C(=O)N3CCCC[C@H]3C(=O)O[C@H](/C(C)=C/[C@@H]3CC[C@@H](O)[C@H](OC)C3)[C@H](C)[C@@H](O)CC1=O)[C@H](C)C[C@@H]2OC` [FK506, 17-allyl-1,14-dihydroxy-12-[2-(4-hydroxy-3-methoxycyclohexyl)-1-methylvinyl]-23,25-dimethoxy-13,19,21,27-tetramethyl-11,28-dioxa-4-azatricyclo[22.3. 1.0 4,9]octacos-18-ene-2,3,10,16-tetraone], for which the solubility in water result was “only sparingly soluble in water”.
